Key:
[1] = test system: P19 cell line; assay: Differentiation of P19 cell line with retinoic acid; type: cell-based, mouse; conditions: retinoic acid in differentiation medium
Experimental: Differentiation: MEM+0.1% FBS+L-Glutamine (2 mM)+Non-essential Amino acids (1×)+30 uM retinoic acid
Neurobasal+B27+Non-essential Amino acids (1×)+L-Glutamine (2 mM)+30 uM retinoic acid
Differentiation experiments have been performed on the P19 cell line using retinoic acid. […] However, only 60-70% of the cells responded to the stimulus, such that over an extended period the non-neuronal cells proliferate vigorously and kill the neuronal cells. The use of serum-free medium has overcome this problem but cultures appear unhealthy after a period of 2 weeks.

[2] = test system: hippocampal neuronal cell cultures; assay: Acute addition of antimicrobial agents to spontaneously active hippocampal neuronal cultures on MMEP plates; type: cell-based, rat; conditions: for effect on spontaneous activity (firing) of the monitored channel: acute addition (10 μl) at the concentration used routinely in tissue culture, hippocampal cultures grown 4 weeks antibiotic-free; for effect on spontaneous activity at up to 10 times the normal concentration/volume: sequential 10 μl additions up to 10 times normal; for effect of further sequential 10 μl additions: subsequent 10 μl aliquots (penicillin G up to 100 μl at approx. 10 second intervals)
Experimental: Acute administration of antibiotic compounds to neuronal cell cultures: the majority of experiments involved the investigation of acute addition of a range of antibiotics to hippocampal cultures grown in antibiotic-free Neurobasal medium for 4 weeks. In each case MMEP's were screened for activity and a strong, reliable channel was selected for experimentation. Each antibiotic was tested on at least 3 individual cultures and the antibiotic addition was started at the concentration used routinely in tissue culture studies. As controls, the anti-fungal agents Nystatin and Amphotericin B (Fungizone), and the anti-mycoplasma (PPLO) agent Tylosin were also tested. In addition, the agent in which the antibiotic compound was dissolved (usually deionised water or 0.9% sodium chloride), as well as normal medium, were also tested for any effects on neuronal activity. Particular interest was paid to the effects of penicillin G, streptomycin and penicillin/streptomycin mixtures. These are routinely used in tissue culture medium and therefore any possible toxic effects are particularly relevant.

[3] = test system: guinea pigs; conditions: high doses, administered chronically to guinea pigs; cited from earlier work
[4] = test system: hippocampal cultures; assay: Chronic administration of antibiotics to hippocampal cultures grown over 4 weeks, neuronal network activity; type: cell-based, rat
Experimental: Effects of antibiotics on neuronal network activity: chronic administration of antibiotics to neuronal cell cultures. The chronic effect of antibiotics on neuronal network activity was investigated. Experiments were performed on hippocampal cultures grown in parallel, from the same cell preparation, in the presence or absence of penicillin-streptomycin or gentamycin at the recommended doses.

With `CC1=C(/C=C/C(C)=C/C=C/C(C)=C/C(=O)O)C(C)(C)CCC1` [retinoic acid] the “proportion of cells that responded to the stimulus” value [1] was 60-70%.
In the case of `CC1(C)S[C@@H]2[C@H](NC(=O)Cc3ccccc3)C(=O)N2[C@H]1C(=O)O` [Penicillin G], the “effect on spontaneous activity (firing) of the monitored channel” value (“effect on spontaneous activity (firing)” below) [2] is reported as “immediate increase in the firing rate”, the “effect on spike amplitude” value ([2]; acute addition of 10 μl) is reported as “small associated decrease in the amplitude” and the “effect on spontaneous activity at up to 10 times the normal concentration/volume” value [2] is reported as “initial acceleration of the firing rate, with an accompanied reduction in spike amplitude”. The “effect of further sequential 10 μl additions” value [2] was “further decrease in the amplitude with eventual slowing of the firing rate”.
With `[H]/N=C(/N)N[C@H]1[C@H](O)[C@@H](O)[C@H](O[C@@H]2O[C@@H](C)[C@](O)(C=O)[C@H]2O[C@@H]2O[C@@H](CO)[C@H](O)[C@@H](O)[C@@H]2NC)[C@@H](N/C(N)=N\[H])[C@@H]1O` [Streptomycin] the “silence before activity begins to recover” value ([2]; 10 μl, particularly strong (>500(V) channel, without change of medium)) was “approximately 30 seconds”, the “effect on spontaneous activity (firing)” value [2] was “immediate cessation of firing” and the “effect of further sequential 10 μl additions” value [2] was “immediate interruption of activity”. For the same compound, the “effect on channel with weak activity” value ([2]; weak activity (<500 μV), single 10 μl addition) was “sufficient to inhibit activity for several minutes”.
In the case of Gentamicin, the “effect on neuronal cytoarchitecture” value [3] is given as “major structural changes in neuronal cytoarchitecture”, the “long-term effect indicated by poor frequency of activity detection” value ([4]; cultures grown for several weeks in the presence of the antibiotic) is given as “toxic effect” and the “effect on neuronal network activity after chronic presence” value ([4]; recommended doses, grown over a 4-week period) is given as “almost complete cessation of activity”. The “effect on spontaneous activity (firing)” value [2] was “cessation of neuronal activity” and the reversibility of inhibition ([2]; complete medium change within the MMEP culture apparatus) was “reversed by a complete medium change”.
In the case of `CC[C@H]1OC(=O)C[C@@H](O)[C@H](C)[C@@H](O[C@@H]2O[C@H](C)[C@@H](O[C@H]3C[C@@](C)(O)[C@@H](O)[C@H](C)O3)[C@H](N(C)C)[C@H]2O)[C@@H](CC=O)C[C@@H](C)C(=O)/C=C/C(C)=C/[C@@H]1CO[C@@H]1O[C@H](C)[C@@H](O)[C@@H](OC)[C@H]1OC` [Tylosin], the “effect on spontaneous activity at up to 10 times the normal concentration/volume” value [2] is reported as “No inhibition of activity”.
For Polymyxin ‘B’, the “effect on spontaneous activity (firing)” value [2] was “inhibition of activity”.
For `C[C@@H]1[C@H](O)[C@@H](C)/C=C/C=C/C=C/C=C/C=C/C=C/C=C/[C@H](O[C@@H]2O[C@H](C)[C@@H](O)[C@H](N)[C@@H]2O)C[C@@H]2O[C@](O)(C[C@@H](O)C[C@@H](O)[C@H](O)CC[C@@H](O)C[C@@H](O)CC(=O)O[C@H]1C)C[C@H](O)[C@H]2C(=O)O` [amphotericin B, Amphotericin B], the “effect on spontaneous activity at up to 10 times the normal concentration/volume” value [2] was “No inhibition of activity”.
For `C[C@@H]1[C@H](O)[C@@H](C)/C=C/C=C/CC/C=C/C=C/C=C/C=C/C(O[C@H]2O[C@H](C)[C@@H](O)[C@H](N)[C@@H]2O)CC2O[C@](O)(CC(O)C(O)CCC(O)CC(O)CC(O)CC(=O)O[C@H]1C)CC(O)C2C(=O)O` (stereo partly drawn) [Nystatin], the “effect on spontaneous activity at up to 10 times the normal concentration/volume” value [2] was “No inhibition of activity”.
